Reference: patent US4000299A, “1-(Imidazol-1-yl)-1-[4-(4-chlorophenyl)phenoxy]-3,3-dimethylbutan-2-one, its salts and a process for their use” (Bayer Aktiengesellschaft, priority 1974, dated 1976)
In brackets after ≈: the same amount, converted by molar mass. Where two headings read alike, the source gives them in different places.

How the values were obtained:
[1] = system: Candida albicans; assay: experimental candidosis in mice, oral administration; assay type: in vivo, White mice of the CF1 SPF strain
Method: I. on candidosis in mice.
White mice of the CF1 SPF strain are infected with 1-3 × 10^6 Candida albicans cells intravenously by puncture of the tail vein. Untreated control animals die from the 3rd to the 6th day after infection as a result of the candidosis of the organs which develops. If the preparations claimed are given orally in doses of 2 × 6.25 - 2 × 150 mg/kg of body weight, starting from the day of infection and up to the 5th day after infection, the following survival rates are observed: […]

[2] = system: Trich. ment.; assay: series dilution test, MIC; assay type: cell-based
[3] = system: Candida albicans; assay: series dilution test, MIC; assay type: cell-based
[4] = system: Microsporon felinum; assay: series dilution test, MIC; assay type: cell-based; conditions: Table B
[5] = system: Aspergillus spec.; assay: series dilution test, MIC; assay type: cell-based
[6] = system: Sporothrix Schenckii; assay: series dilution test, MIC; assay type: cell-based; conditions: Table A
[7] = system: Staph. aureus; assay: series dilution test, MIC; assay type: cell-based; conditions: Table A; for MIC: Staphylococcus aureus
[8] = system: Trichomonas vaginalis; assay: series dilution test, MIC; assay type: cell-based; conditions: Table A
[9] = system: Coccidioides immitis; assay: microbe, parasite or virus in culture; assay type: cell-based; conditions: for MIC values: Table A; for MIC: read-out: MIC values
[10] = system: Torulopsis glab.; assay: series dilution test, MIC; assay type: cell-based; conditions: Table A
[11] = system: Microsporon canis; assay: series dilution test, MIC; assay type: cell-based; conditions: for MIC: read-out: MIC values
[12] = system: Cryptococcus neof.; assay: series dilution test, MIC; assay type: cell-based; conditions: Table A
[13] = system: Pityrosporum ovale; assay: series dilution test, MIC; assay type: cell-based; conditions: Table A; for MIC: Malassezia furfur
[14] = pharmacokinetics after oral administration; assay type: in vivo; conditions: serum, 50 mg/kg of body weight, mice and guinea pigs, read-out: serum peak concentrations
Method: c. Guideline data on the pharmacokinetics after oral administration. The preparations claimed are resorbed well on oral administration to mice and guinea pigs and after doses of 50 mg/kg of body weight give serum peak concentrations of 4-6 γ/ml for the case of the hydrochloride.

[15] = 2 × 6.25 mg/kg of body weight, 6.25 mg/kg
[16] = 2 × 12.5 mg/kg of body weight, 12.5 mg/kg
[17] = 2 × 25 mg/kg of body weight, 25 mg/kg

## CC(C)(C)C(=O)C(Oc1ccc(-c2ccc(Cl)cc2)cc1)n1ccnc1 (stereo not drawn) [drawing 15]
[1]; [15]
  Survival rates on the 6th day after infection: 95%
[1]; [16]
  Survival rates on the 6th day after infection: 95%
[1]; [17]
  Survival rates on the 6th day after infection: 100%
[1]; 2 × 50 mg/kg of body weight
  Survival rates on the 6th day after infection: 100%
[1]; 2 × 100 mg/kg of body weight
  Survival rates on the 6th day after infection: 100%
[1]; 2 × 150 mg/kg of body weight
  Survival rates on the 6th day after infection: 100%

## O=C(c1ccccc1)C(Oc1c(Cl)cccc1Cl)n1ccnc1 (stereo not drawn)
[2]; Table B, Trichophyton ment.
  MIC: 4 µg/mL (≈ 11.5 µM)
[3]; Table B
  MIC: 4 µg/mL (≈ 11.5 µM)
[4]
  MIC: 40 µg/mL (≈ 115 µM)
[5]; Table B
  MIC: 100 µg/mL (≈ 288 µM)

## O=C(c1ccccc1)C(Oc1ccc(Cl)cc1)(c1ccccc1)n1ccnc1 (stereo not drawn)
[2]; Table B, Trichophyton ment.
  MIC: 10 µg/mL (≈ 25.7 µM)
[3]; Table B
  MIC: 10 µg/mL (≈ 25.7 µM)
[4]
  MIC: 40 µg/mL (≈ 103 µM)
[5]; Table B
  MIC: 10 µg/mL (≈ 25.7 µM)

## CC(C)(C)C(=O)C(Cn1ccnc1)Oc1ccc(Cl)cc1 (stereo not drawn)
[2]; Table B, Trichophyton ment.
  MIC: 4 µg/mL (≈ 13 µM)
[3]; Table B
  MIC: 4 µg/mL (≈ 13 µM)
[5]; Table B
  MIC: 8 µg/mL (≈ 26.1 µM)

## OC(O)(c1ccccc1)C(Oc1cccc(Cl)c1)n1ccnc1 (stereo not drawn)
[2]; Table B, Trichophyton ment.
  MIC: 4 µg/mL (≈ 12.1 µM)
[3]; Table B
  MIC: 4 µg/mL (≈ 12.1 µM)
[4]
  MIC: 40 µg/mL (≈ 121 µM)
[5]; Table B
  MIC: 40 µg/mL (≈ 121 µM)

## CC(C)(C)C(=O)C(Oc1ccc(-c2ccc(Cl)cc2)cc1)n1ccnc1 (stereo not drawn) [drawing 14]
[1]; [15]
  Survival rates on the 6th day after infection: 55%
[1]; [16]
  Survival rates on the 6th day after infection: 70%
[1]; [17]
  Survival rates on the 6th day after infection: 80%
[1]; 2 × 50 mg/kg of body weight
  Survival rates on the 6th day after infection: 100%
[1]; 2 × 100 mg/kg of body weight
  Survival rates on the 6th day after infection: 100%
[1]; 2 × 150 mg/kg of body weight
  Survival rates on the 6th day after infection: 100%

## CC(C)(C)C(=O)C(Cn1ccnc1)Oc1ccccc1-c1ccccc1 (stereo not drawn)
[2]; Table B, Trichophyton ment.
  MIC: 8 µg/mL (≈ 23 µM)
[3]; Table B
  MIC: 4 µg/mL (≈ 11.5 µM)
[5]; Table B
  MIC: 8 µg/mL (≈ 23 µM)

## CC(C)(C)C(=O)C(Cn1ccnc1)Oc1ccc(Br)cc1 (stereo not drawn)
[2]; Table B, Trichophyton ment.
  MIC: 8 µg/mL (≈ 22.8 µM)
[3]; Table B
  MIC: 4 µg/mL (≈ 11.4 µM)
[5]; Table B
  MIC: 4 µg/mL (≈ 11.4 µM)

## C[C@@H]1[C@H](O)[C@@H](C)/C=C/C=C/CC/C=C/C=C/C=C/C=C/C(O[C@H]2O[C@H](C)[C@@H](O)[C@H](N)[C@@H]2O)CC2O[C@](O)(CC(O)C(O)CCC(O)CC(O)CC(O)CC(=O)O[C@H]1C)CC(O)C2C(=O)O (stereo partly drawn) [Nystatin, nystatin]
[1]; 2 × 6.25 mg/kg of body weight
  Survival rates on the 6th day after infection: < 10%
[1]; 2 × 12.5 mg/kg of body weight
  Survival rates on the 6th day after infection: < 10%
[1]; 2 × 25 mg/kg of body weight
  Survival rates on the 6th day after infection: < 10%
[1]; 2 × 50 mg/kg of body weight
  Survival rates on the 6th day after infection: < 10%
[1]; 2 × 100 mg/kg of body weight
  Survival rates on the 6th day after infection: 30%
[1]; 2 × 150 mg/kg of body weight
  Survival rates on the 6th day after infection: 50%
[6]
  MIC values: 40 µg/mL (≈ 43.2 µM)
[7]
  MIC values: > 100 µg/mL
[2]; Table A, Trich. ment.
  MIC values: 20 µg/mL (≈ 21.6 µM)
[8]
  MIC values: > 1,000 γ/ml
[3]; Table A
  MIC values: 5 µg/mL (≈ 5.4 µM)
[9]
  MIC values: 40 µg/mL (≈ 43.2 µM)
[10]
  MIC values: 5 µg/mL (≈ 5.4 µM)
[11]; Table A, Microsporon canis
  MIC values: 20 to 40 µg/mL
[12]
  MIC values: 4 to 10 µg/mL
[5]; Table A
  MIC values: 40 to 100 µg/mL

## O=C(c1ccccc1)C(Oc1cccc(Cl)c1)n1ccnc1 (stereo not drawn)
[2]; Table B, Trichophyton ment.
  MIC: 4 µg/mL (≈ 12.8 µM)
[3]; Table B
  MIC: 10 µg/mL (≈ 32 µM)
[4]
  MIC: 40 µg/mL (≈ 128 µM)
[5]; Table B
  MIC: 40 µg/mL (≈ 128 µM)

## COC1=CC(=O)C[C@@H](C)[C@]12Oc1c(Cl)c(OC)cc(OC)c1C2=O [Griseofulvin, griseofulvin]
[6]; Sporothrix schenckii
  MIC: > 100 µg/mL
[7]
  MIC: > 100 µg/mL
[2]; Table A, Trich. ment.
  MIC: 5 to 10 µg/mL (≈ 14.2 to 28.3 µM)
[8]
  MIC: > 1000 µg/mL
[3]; Table A
  MIC: > 100 µg/mL
[9]
  MIC: > 100 µg/mL
[10]
  MIC: > 100 µg/mL
[11]
  MIC: 5 to 10 µg/mL (≈ 14.2 to 28.3 µM)
[12]
  MIC: > 100 µg/mL
[5]; Table A
  MIC: 40 to 100 µg/mL (≈ 113 to 283 µM)
[13]
  MIC: > 100 µg/mL

## CC(C)(C)C(=O)C(Oc1ccc(-c2ccc(Cl)cc2)cc1)n1ccnc1 (stereo not drawn) [drawing 4]
[6]
  MIC values: 0.1 µg/mL (≈ 0.271 µM)
[7]
  MIC: 8 µg/mL (≈ 21.7 µM)
[2]; Table A, Trich. ment.
  MIC: < 1 µg/mL
[8]
  MIC: 250 µg/mL (≈ 678 µM)
[3]; Table A
  MIC: 2 to 4 µg/mL (≈ 5.42 to 10.8 µM)
[9]
  MIC: 0.1 µg/mL (≈ 0.271 µM)
[10]
  MIC: 2 µg/mL (≈ 5.42 µM)
[11]; Table A, Microsporon canis
  MIC: < 1 µg/mL
[12]
  MIC: 1 to 2 µg/mL (≈ 2.71 to 5.42 µM)
[5]; Table A
  MIC: < 1 µg/mL
[13]
  MIC: < 1 µg/mL

## CC(C)(C)C(=O)C(Oc1ccc(-c2ccc(Cl)cc2)cc1)n1ccnc1 (stereo not drawn) [drawing 5]
[6]
  MIC values: 0.5 µg/mL (≈ 1.36 µM)
[7]
  MIC values: 4 µg/mL (≈ 10.8 µM)
[2]; Table A, Trich. ment.
  MIC values: < 1 µg/mL
[8]
  MIC values: 250 µg/mL (≈ 678 µM)
[3]; Table A
  MIC values: 2 µg/mL (≈ 5.42 µM)
[9]
  MIC values: 0.1 µg/mL (≈ 0.271 µM)
[10]
  MIC values: 2 µg/mL (≈ 5.42 µM)
[11]; Table A, Microsporon canis
  MIC values: < 1 µg/mL
[12]
  MIC values: 1 to 2 µg/mL
[5]; Table A
  MIC values: < 1 µg/mL
[13]
  MIC values: < 1 µg/mL

## CC(C)(C)C(=O)C(Oc1ccc(-c2ccc(Cl)cc2)cc1)n1ccnc1.Cl (stereo not drawn) [Example 1, 1-(imidazol-1-yl)-1-[4-(4-chlorophenyl)phenoxy]-3,3-dimethyl-butan-2-one hydrochloride]
[14]
  Cmax: 4000 to 6000 ng/mL

## CC(C)(C)C(=O)C(Cn1ccnc1)Oc1ccc(F)cc1 (stereo not drawn)
[2]; Table B, Trichophyton ment.
  MIC: 8 µg/mL (≈ 27.6 µM)
[3]; Table B
  MIC: 4 µg/mL (≈ 13.8 µM)
[5]; Table B
  MIC: 4 µg/mL (≈ 13.8 µM)
